Measured values from US9913862B2, “Methods of treating gram-negative microbial infections” (TRUSTEES OF BOSTON UNIVERSITY, priority 2011, dated 2018).
Where two headings read alike, the source gives them in different places.

Tests used:
[1] = test system: Fe—S clusters in E. Coli cell lysate; settings: 30 μM AgNO3 for 1 hr
Description: Iron detection Ferene S colorimetric assay: The release of protein-bound iron in an E. Coli cell lysate was measured using a Ferene-S assay. The lysate was prepared by first growing 150 mL of cells to an OD600 nm of 0.7. The cells were then lysed by sonication in 20 mM Tris/HCl pH 7.2 buffer. The samples were centrifuged and the supernatants containing the cell lysates were collected. Lysates were treated either with heat (90° C. for 20 min) or with 30 μM AgNO3 (for 1 hr). 10 mM Ferene-S was added to each sample and samples were then incubated at room temperature for 1 h. Absorbance at 593 nm was then measured.

Fur reporter strain = settings: one hour of treatment; 15 and 30 μM AgNO3
Description: (§1) Iron misregulation superoxide production and disulfide bond formation measurements: Iron regulation and superoxide production were measured using previously constructed genetic reporter strains. A disulfide bond formation sensor was constructed based on activation of the OxyR protein, which forms a disulfide bond in the presence of H2O2. The disulfide bond formation sensor was constructed by PCR-amplifying the native dps promoter and cloning it into the BamHI and XhoI restriction sites of the pZE21 vector [33]. The forward primer for PCR was […] (SEQ ID NO: 1), and the reverse primer was […] (SEQ ID NO: 2). The data were collected using a Becton Dickinson FACSCalibur flow cytometer with a 488-nm argon laser and a 515-545 nm emission filter (FL1) at high flow rate. Calibrite beads (Becton Dickinson) were used for instrument calibration. FlowJo was used to process flow cytometric data.

soxS reporter strain = settings: 1 h, 30 μM AgNO3
Description: as §1

[2] = test system: human cell lines (primary keratinocytes, primary hepatocytes and neurons)
E. coli [3] = assay type: cell-based; settings: for ROS production when sublethal Ag+ is added to the antibiotic: sublethal antibiotic plus 15 μM AgNO3
From the text: FlowJo was used to process flow cytometric data.

E. Coli [4] = test: Mouse peritonitis model, E. coli counts in peritoneal cavity; assay type: in vivo, mice; settings: after 24 hours; single agent i.p.; 30 mg vancomycin/kg or 6 mg AgNO3/kg
Description: (§2) Minimum lethal dose (MLD) of E. coli for peritonitis mouse model: For all animal experiments, 6-week-old C57BL6 male mice (body weight, ˜20 g) were used. Serial dilutions of E. Coli ranging from 1×10^6-1×10^9 cfu/mouse were introduced into the peritoneal cavity of the mice in 500 μL aliquots of sterile saline supplemented with 8% mucine. […] The MLD was determined to be 5×10^6 cfu/mouse by measuring the lowest concentration of E. Coli that killed 100% of the recipient mice.
Mouse Peritonitis Model: Inbred, wildtype male C57BL/6 mice (6 weeks; ˜20 g) were used. After one week of quarantine, inoculation was performed by intraperitoneal (i.p.) injection of 500 μL of the MLD E. Coli inoculum using a 26-gauge syringe. The inoculum was delivered in suspension with 8% (w/v) mucine in sterile saline. 1 h after introduction of the inoculum, the untreated control group (t=0) was euthanized. Subsequently, antibacterial therapy was initiated by intraperitoneal injection. Ten mice per group received antibacterial treatments. At time 0 (control only), 8, 16 and 24 h, mice were euthanized. Peritoneal washes were performed by injecting 1.0 mL of sterile saline in the intraperitoneal followed by a massage of the abdomen. Subsequently, the abdomen was opened and 200 μL of peritoneal fluid (PF) was recovered from the peritoneum for analysis of E. Coli cfu/mL.

E. coli [5] = assay type: cell-based; settings: for bactericidal activity when sublethal Ag+ is added to the antibiotic: sublethal antibiotic (0.25 μg/mL gentamicin, 0.03 μg/mL ofloxacin, 1 μg/mL ampicillin) plus 15 μM AgNO3
Description: Antibiotics and chemicals: All experiments presented herein were performed in Luria Bertani (LB) medium (Fisher Scientific). […] Additional chemicals that were used in the Examples include: phosphate buffer saline (PBS) (Sigma), Tris/HCl buffer pH 7.5 (Sigma), ferene-S(Fisher Scientific), 3′-p-hydroxyphenyl fluorescein dye (Invitrogen), propidium iodide (Invitrogen), and thiourea (Fluka).
Media and growth conditions: The growth and survival of untreated exponential-phase E. coli strains were compared with the antibiotic-treated strains. Briefly, cultures from frozen stock were grown overnight. The overnight culture was diluted 1:250 with 25 mL of LB medium in 250 mL flasks and incubated at 37° C., 300 rpm, and 80% humidity. Cells were then grown until an OD600 nm of 0.3. For antibiotic treatments, 500 μL samples were taken from the flasks and transferred to a 24-well plate incubated at 37° C., 900 rpms, and 80% humidity. For the hydroxyl radical (OH•) quenching experiments, thiourea (150 mM) was added simultaneously with the silver salt (e.g., AgNO3). Measurements of OD600 nm were taken using a SpectraFluor Plus (Tecan). For measuring the colony forming unit (cfu) per milliliter (mL), 100 μL of culture was collected and then serially diluted in PBS (pH 7.2). A 5 μL portion of each dilution was plated in LB-agar plates and incubated overnight at 37° C. The colonies were counted and cfu/mL was calculated using the following formula: ((number of colonies)*(dilution factor))/(amount plated).
Strains: All E. Coli experiments were performed with MG1655 (ATCC 700926)-derived strains. The knockouts were constructed using P1 phage transduction and derived from the Keio single-gene knockout collection. Removal of the kanamycin resistance cassette was accomplished using the pcp20 plasmid and confirmed by PCR prior to experimentation.

E. coli [6] = settings: ΔdsbA knockout; 1 h; 30 μM AgNO3
E. Coli [7] = test: Mouse peritonitis model, survival assay; assay type: in vivo, mice; settings: after 5 days; i.p.; 30 mg vancomycin/kg, 6 mg AgNO3/kg (35 μM)
Description: as §2
Survival Assays: Male C57BL6 6-week old mice (weighing ˜20 g) received intraperitoneal injections of the MLD of E. Coli in a volume of 500 μL with 8% mucine. After 1 h, ten mice per group received either vehicle (PBS) only or infusions of the antibacterial treatments.

dps reporter strain = dps reporter strain (OxyR disulfide bond formation sensor); assay type: cell-based, E. coli; settings: 1 h
From the text: The forward primer for PCR was […] […] (SEQ ID NO: 2). […] Calibrite beads (Becton Dickinson) were used for instrument calibration. FlowJo was used to process flow cytometric data.

mice = settings: concentrations up to 12 mg AgNO3/kg (70 μM)
E. coli [8] = test system: E. coli
Description: Transmission electron microscopy: Samples analyzed with transmission electron microscopy were prepared using the following procedure: 100 μL samples were taken, centrifuged and resuspended in 1×PBS twice. To fix the bacterial cells, the samples were centrifuged and resuspended in 1 mL of 2.5% glutaraldehyde solution in PBS for 30 min. The cells were then dehydrated by exposing them for 10 min to a series of ethanol concentration solutions (50, 60, 80, 90 and 100% ethanol/PBS solutions). The cells were finally embedded into Spurr resin and left to polymerize in an oven at 60° C. for 24 h. The polymerized samples were sectioned into slices of thickness of ˜60 nm using a microtome. The sliced samples were analyzed in a Jeol 1200EX-80 kV.

O=[N+]([O-])[O-].[Ag+] [Ag^+, silver nitrate]
Fe+2 levels in treated lysate relative to untreated lysate [1]: higher Fe^+2 levels | Fur reporter GFP fluorescence relative to untreated cells (Fur reporter strain): significantly increased fluorescence | response of soxS reporter strain (superoxide production) (soxS reporter strain): induce superoxide production | superoxide levels in ΔcydB in response to treatment (soxS reporter strain; soxS reporter in ΔcydB): lower levels of superoxide | toxicity in human cell lines [2]: no significant toxicity | HPF fluorescence (OH• production) compared to untreated cells (E. coli [3]; treated for one hour, 30 μM AgNO3, wildtype): detectable increases in fluorescence | hydroxyl radical production in ΔarcA strain compared to wildtype (E. coli [3]; ΔarcA knockout, 1 h, 30 μM AgNO3): lower hydroxyl radical production | hydroxyl radical production in ΔcpxA and ΔcpxR strains (E. coli [3]; ΔcpxA and ΔcpxR knockouts, 1 h, 30 μM AgNO3): lower levels of hydroxyl radical production | OH• production in ΔiscS compared to wildtype cells (E. coli [3]; ΔiscS knockout, 1 h, 30 μM AgNO3): significantly lower OH• production | effect on peritoneal E. Coli cell counts (E. Coli [4]): no effect | bactericidal activity against exponentially growing E. coli (E. coli [5]; 30 μM, wildtype): significant bactericidal activity | phenotype of DsbC knockout under treatment (E. coli [5]; DsbC knockout, 30 μM AgNO3): phenotype similar to that exhibited by ΔdsbA | reduction or inhibition of growth compared to untreated microbes (E. coli [5]; silver ions at about 30 μM, FIG. 1A): at least 30% | sensitivity of ΔarcA strain compared to wildtype (E. coli [5]; ΔarcA knockout, 30 μM AgNO3): lower sensitivity | sensitivity of ΔcpxA and ΔcpxR strains versus wildtype (E. coli [5]; ΔcpxA and ΔcpxR knockouts, 30 μM AgNO3): less sensitive | sensitivity of cytochrome bd knockout (ΔcydB) versus wildtype (E. coli [5]; 30 μM AgNO3): less sensitive | sensitivity of cytochrome bd knockout (ΔcydB) versus wildtype (E. coli [5]; 30 μM AgNO3, listed as silver nitrate): considerably less sensitivity | sensitivity of cytochrome bo knockout (ΔcyoA) versus wildtype (E. coli [5]; ΔcyoA knockout): greater sensitivity | sensitivity of ΔdsbA strain versus treated wildtype (E. coli [5]; ΔdsbA knockout, 30 μM AgNO3): more sensitive | sensitivity of TCA cycle gene knockout strains versus wildtype (E. coli [5]; ΔicdA, ΔsucB, Δmdh, ΔacnB, 30 μM AgNO3): less sensitive | phenotype of ΔiscS strain under treatment (E. coli [5]; ΔiscS knockout, 30 μM AgNO3): bacteriostatic phenotype | susceptibility of ΔsecG strain compared to wildtype (E. coli [5]; ΔsecG knockout, 30 μM AgNO3): less susceptible | permeability (PI) of ΔdsbA strain versus treated wildtype (E. coli [6]): more permeable | mice survived (E. Coli [7]): 50% | dps reporter GFP fluorescence on addition to H2O2 treatment (dps reporter strain; 30 μM AgNO3 added to 0.5 mM H2O2): reduced the fluorescence back to untreated levels | toxicity in mice (mice): no effect | physical changes of bacterial cells (TEM) at sublethal concentrations (E. coli [8]; 10 μM and 20 μM AgNO3): moderate morphological changes and protein aggregate formation | physical changes of bacterial cells (TEM) (E. coli [8]; bactericidal concentrations (30 μM AgNO3)): protein aggregation and drastic morphological changes in the cell envelope

OO [H2O2, reference compound]
dps reporter GFP fluorescence relative to untreated cells (dps reporter strain; 0.5 mM H2O2 alone): significantly increased fluorescence

CC1(C)S[C@@H]2[C@H](NC(=O)[C@H](N)c3ccccc3)C(=O)N2[C@H]1C(=O)O [ampicillin, reference compound]
ROS (OH•) production from sublethal antibiotic alone (E. coli [3]; 1 h): no detectable increases in ROS production | ROS production when sublethal Ag+ is added to the antibiotic (E. coli [3]; 1 h): dramatic increases in ROS | bactericidal activity when sublethal Ag+ is added to the antibiotic (E. coli [5]): significantly enhanced bactericidal activity

CN[C@H](CC(C)C)C(=O)N[C@H]1C(=O)N[C@@H](CC(N)=O)C(=O)N[C@H]2C(=O)N[C@H]3C(=O)N[C@H](C(=O)N[C@H](C(=O)O)c4cc(O)cc(O)c4-c4cc3ccc4O)[C@H](O)c3ccc(c(Cl)c3)Oc3cc2cc(c3O[C@@H]2O[C@H](CO)[C@@H](O)[C@H](O)[C@H]2O[C@H]2C[C@](C)(N)[C@H](O)[C@H](C)O2)Oc2ccc(cc2Cl)[C@H]1O [vancomycin, reference compound]
effect on peritoneal E. Coli cell counts (E. Coli [4]): no effect | cell death with combination relative to Ag+ or vancomycin alone (E. coli [5]; 30 μg/mL vancomycin combined with 15, 20 or 30 μM AgNO3): significantly higher levels of cell death | growth of Gram-negative microbes (E. coli) under combination (E. coli [5]; vancomycin combined with silver nitrate, silver ions about 15 μM, FIG. 8D): reduces the growth | mice survived (E. Coli [7]): 10%

gentamicin [reference compound]
ROS (OH•) production from sublethal antibiotic alone (E. coli [3]; 1 h): no detectable increases in ROS production | ROS production when sublethal Ag+ is added to the antibiotic (E. coli [3]; 1 h): dramatic increases in ROS | bactericidal activity when sublethal Ag+ is added to the antibiotic (E. coli [5]): significantly enhanced bactericidal activity
